# From article PMC11475281, “A Novel Liver Cancer-Selective Histone Deacetylase Inhibitor Is Effective against Hepatocellular Carcinoma and Induces Durable Responses with Immunotherapy” (ACS Pharmacology & Translational Science, 2024)
# Like-named read-outs stand apart in the source and are kept apart here.
# Legend:
# HDAC6 = molecular target: T1, HDAC6 (Homo sapiens, UniProt Q9UBN7); assay: HDAC isoform inhibition (BPS Bioscience)
# T1 sequence (Q9UBN7 1-1215): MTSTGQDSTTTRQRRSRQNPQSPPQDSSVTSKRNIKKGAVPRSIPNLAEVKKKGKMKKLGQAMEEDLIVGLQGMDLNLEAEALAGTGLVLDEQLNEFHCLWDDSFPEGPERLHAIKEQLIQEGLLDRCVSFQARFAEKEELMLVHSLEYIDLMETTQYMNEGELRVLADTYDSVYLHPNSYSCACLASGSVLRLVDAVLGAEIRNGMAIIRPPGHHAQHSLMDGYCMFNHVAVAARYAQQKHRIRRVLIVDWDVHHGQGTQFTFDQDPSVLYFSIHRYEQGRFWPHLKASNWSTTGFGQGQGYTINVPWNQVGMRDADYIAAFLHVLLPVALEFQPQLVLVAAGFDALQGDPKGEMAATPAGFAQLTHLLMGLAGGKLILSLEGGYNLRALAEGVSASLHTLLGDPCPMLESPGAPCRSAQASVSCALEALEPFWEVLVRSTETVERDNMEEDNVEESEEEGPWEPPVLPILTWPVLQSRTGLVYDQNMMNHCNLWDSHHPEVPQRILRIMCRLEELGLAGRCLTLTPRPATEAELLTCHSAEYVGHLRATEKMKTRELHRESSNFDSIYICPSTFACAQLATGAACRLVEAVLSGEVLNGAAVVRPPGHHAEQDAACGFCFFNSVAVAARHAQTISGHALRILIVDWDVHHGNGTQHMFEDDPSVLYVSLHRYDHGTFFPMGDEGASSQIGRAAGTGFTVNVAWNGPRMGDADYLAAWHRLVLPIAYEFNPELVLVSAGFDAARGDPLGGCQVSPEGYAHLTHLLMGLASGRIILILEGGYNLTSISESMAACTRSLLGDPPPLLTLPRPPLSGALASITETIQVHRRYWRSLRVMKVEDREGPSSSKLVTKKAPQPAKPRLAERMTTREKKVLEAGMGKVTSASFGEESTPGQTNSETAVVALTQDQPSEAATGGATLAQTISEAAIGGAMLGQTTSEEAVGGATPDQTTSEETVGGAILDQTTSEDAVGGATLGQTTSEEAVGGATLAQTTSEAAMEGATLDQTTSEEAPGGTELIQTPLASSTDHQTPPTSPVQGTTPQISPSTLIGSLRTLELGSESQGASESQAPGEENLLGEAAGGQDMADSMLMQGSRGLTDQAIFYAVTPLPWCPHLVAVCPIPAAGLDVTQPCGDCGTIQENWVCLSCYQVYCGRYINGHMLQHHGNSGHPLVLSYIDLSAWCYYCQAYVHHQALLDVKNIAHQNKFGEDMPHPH
# HDAC1 = HDAC1 (Homo sapiens, UniProt Q13547); assay: HDAC isoform inhibition (BPS Bioscience)
# [1] = test system: A549 (lung adenocarcinoma); assay: MTS cell viability assay, 72 h; format: cell-based
# Text: (§1) We then screened STR-V-53 and all the synthesized glycosylated HDACi for their effects on the viability of three cell lines: A549 (lung adenocarcinoma), Hep-G2 (HCC), and VERO (a normal kidney epithelial cell). We used SORA and STR-V-48, a previously disclosed nonglycosylated compound, as controls.[25] […] Additionally, compound STR-V-167, the peracetylated analog of STR-V-53, largely retained the Hep-G2 selectivity of STR-V-53 (Table S2). Subsequently, we evaluated the effects of STR-V-53 on cell proliferation using a panel of human HCC cell lines (Huh-7, SK-Hep-1, and Hep3B) as well as Kupffer cells (liver resident macrophages) by MTS assay. We observed that STR-V-53 is 7- to 16-fold more cytotoxic against these HCC cell lines relative to the Kupffer cells (Figure 1g). […] Based on their weak HDAC and cell proliferation inhibition activities, we de-emphasized further evaluation of the class III compounds.
# (§2) 10-017-CV), supplemented with 10% fetal bovine serum (FBS) (Corning, 35-010-CV). Hep-G2 cells were cultured in phenol red-free Minimum Essential Medium (MEM) (Corning, 17-305-CV), supplemented with 10% fetal bovine serum (FBS). SK-Hep-1 in ATCC-formulated EMEM (ATCC® 30–2003™); Huh-7 in DMEM (containing 4 mM L-glutamine and 1 g/L glucose) with […]
# (§3) Kupffer Cell Media (Sekisui XenoTech, LLC, Cat. #K8700). Cells were seeded into a 96-well plate (2000 counts/100uL) for 24 h prior to treatment and then treated with various drug concentrations for 72 h. All drugs were dissolved in media with DMSO concentration maintained at 1%. The effect of compounds on cell viability was measured using the MTS assay (CellTiter 96 Aqueous One Solution and CellTiter 96 Non-Radioactive Cell Proliferation Assays, Promega, Madison, WI) as described by the manufacturer. IC50s were determined using Prism GraphPad 8. […]
# [2] = test system: VERO (a normal kidney epithelial cell); assay: MTS cell viability assay, 72 h; format: cell-based
# Text: as §1, §2, §3
# Hep-G2 cells = assay: Immunoblotting of cleaved Caspase 3 and p21WAF/CIP; format: cell-based, human; settings: for Caspase 3 cleavage (cleaved Caspase 3/Pro-caspase 3): IC50 or 2× IC50 for 18 h; for p21WAF/CIP level: higher concentrations, 18 h
# Description: (§4) Figure 3 Effects of STR-V-53 on intracellular markers of HDAC inhibition, antitumor immune response, and apoptosis. (a) STR-V-53 upregulates the levels of acetylated H4 and tubulin in Hep-G2 cells. Hep-G2 cells were treated with DMSO or 0.1% DMSO solution of SAHA (1.25 μM) and STR-V-53 (1.25 μM, 2.5 μM). Cells were treated for 5 h before lysis. Data are from two independent experiments. (b) STR-V-53 upregulates PD-L1 and downregulates PD-1 expressions in Hep-G2 cells. Cells were treated with DMSO or 0.1% DMSO solution of SAHA (5 μM and 10 μM) and STR-V-53 (10 and 20 μM) for 24 h. (c) STR-V-53 and SAHA caused upregulation of the levels of CD54 in the Hep-G2 cell line. Cells were treated with DMSO or 0.1% DMSO solution of SAHA (5 and 10 μM) and STR-V-53 (5, 10, and 20 μM) for 24 h. […] Cells were treated with DMSO or 0.1% DMSO solution of SAHA (5 μM) and STR-V-53 (10 and 20 μM).
# HDAC inhibition could cause cell apoptosis through caspase cleavage and p21^WAF/CIP upregulation.[37] To probe if our compounds elicit a similar phenotype, we investigated the effects representative examples on the cellular levels of cleaved Caspase 3 and p21^WAF/CIP through immunoblotting.
# VERO cells = assay: Immunoblotting of cleaved Caspase 3; format: cell-based; settings: same concentrations as in Hep-G2
# Description: as §4
# [3] = Table S2, read-out: Anti-proliferation IC50 A549
# [4] = Table S2, read-out: Anti-proliferation IC50 VERO
# HDAC1, sequence (Q13547 whole entry, canonical isoform): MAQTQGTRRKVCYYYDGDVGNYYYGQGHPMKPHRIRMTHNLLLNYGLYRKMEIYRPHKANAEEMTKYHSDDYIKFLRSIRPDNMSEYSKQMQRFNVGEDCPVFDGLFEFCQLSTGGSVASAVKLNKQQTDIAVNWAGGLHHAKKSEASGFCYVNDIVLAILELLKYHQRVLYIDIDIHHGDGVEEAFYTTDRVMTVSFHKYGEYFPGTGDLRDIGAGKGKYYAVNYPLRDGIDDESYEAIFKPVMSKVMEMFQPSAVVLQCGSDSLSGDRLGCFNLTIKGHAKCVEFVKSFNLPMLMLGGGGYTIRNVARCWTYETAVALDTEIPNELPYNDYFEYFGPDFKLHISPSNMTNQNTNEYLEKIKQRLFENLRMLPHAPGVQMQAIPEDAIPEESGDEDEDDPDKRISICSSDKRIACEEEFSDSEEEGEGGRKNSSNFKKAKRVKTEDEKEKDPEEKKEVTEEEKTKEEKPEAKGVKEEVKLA
SMILES,"IC50 (HDAC6; read-out: HDAC6 IC50, Table S1) [nM]","IC50 (HDAC1; read-out: HDAC1 IC50, Table S1) [nM]","IC50 [1, 3] [µM]","IC50 [2, 4] [µM]",Caspase 3 cleavage (cleaved Caspase 3/Pro-caspase 3) (Hep-G2 cells),p21WAF/CIP level (Hep-G2 cells),IC50 (HDAC6) [nM],IC50 (HDAC1) [nM],Caspase 3 cleavage (VERO cells),"IC50 ([1]; Homo sapiens, A549, Figure 1g, read-out: Anti-proliferation effects IC50 (μM) A549) [µM]","IC50 ([2]; Chlorocebus sabaeus, Vero, Figure 1g, read-out: Anti-proliferation effects IC50 (μM) Vero) [µM]"
O=C(CCCCCCn1cc(-c2ccc3cc(O[C@H]4O[C@H](CO)[C@@H](O)[C@H](O)[C@H]4O)ccc3c2)nn1)NO [STR-V-114],4.5,20.3,77.2 ± 4.3,34.1 ± 3,,,,,,,
O=C(CCCCCCn1cc(-c2ccc(O[C@H]3O[C@H](CO)[C@@H](O)[C@H](O)[C@H]3O)cc2)nn1)NO [STR-V-53],,,,,significant upregulation of cleave Caspase 3/Pro-caspase 3 ratio,upregulated significantly,3.43,24.3,did not induce cleavage of Caspase 3,> 100,> 100
O=C(CCCCCCn1cc(-c2ccc(O[C@@H]3O[C@H](CO)[C@@H](O)[C@H](O)[C@H]3O)cc2)nn1)NO [STR-I-195],2.51,14.6,> 100,65.5 ± 8.3,showed cleavage of Caspase 3,upregulated significantly,,,did not induce cleavage of Caspase 3,,
"O=C(CCCCCCC(=O)Nc1ccccc1)NO [SAHA, vorinostat, reference compound]",,,,,showed cleavage of Caspase 3,,,,induced cleavage of Caspase 3,,
